Where two headings read alike, the source gives them in different places.
Tests used:
HEK293 cells = test: HEK293 resazurin cell cytotoxicity assay; settings: for IC50 / inhibition at 20 µM: Homo sapiens, HEK293, read-out: HEK % Inhibition 20uM/IC50 Discovery Biology
T. brucei brucei = settings: ref Pbox supporting information, cited from earlier work
[1] = system: T. cruzi C4 β-galactosidase reporter parasite in MRC 5SV2 host cells; settings: cited from earlier work
[2] = system: T. b. brucei 427 bloodstream trypanosomes; test: T. b. brucei resazurin viability assay; type: cell-based, Trypanosoma brucei brucei
T. brucei rhodesiense = settings: ref Pbox supporting information, cited from earlier work; for IC50: read-out: T .b. rohdensie Pbox IC50
[3] = system: T. cruzi intracellular amastigotes; test: Intracellular anti-Trypanosoma cruzi image-based assay (amastigotes); type: cell-based; settings: for IC50 / Emax: Trypanosoma cruzi; for IC50: intracellular amastigotes; for Emax: PBox kinetoplastid set compounds active against T. cruzi alone, read-out: Emax against T. cruzi (subefficacious effect)
[4] = system: L. infanium (macrophages); set-up: method as in Pbox supporting information; settings: ref Pbox supporting information; cited from earlier work
HepG2 = settings: cited from earlier work
[5] = system: NF54-pfs16-LUC-GFP stage IV gametocytes; test: Plasmodium falciparum late stage gametocyte (LSG) image-based assay; type: cell-based
[6] = system: Plasmodium falciparum 3D7 asexual blood stage; test: microbe, parasite or virus in culture
[7] = read-out: T.b. brucei Pbox IC50
[8] = ref Pbox supporting information, read-out: T. cruzi Pbox IC50
[9] = Trypanosoma brucei; read-out: T b.brucei Discovery Biology IC50
[10] = read-out: T cruzi Discovery Biology IC50
[11] = Trypanosoma brucei; PBox compounds; read-out: IC50 T. brucei brucei (Discovery Biology)
[12] = HepG2, ref PBox supporting information
[13] = 7 days exposure, ref PBox supporting information, read-out: T. cruzi IC50 in the PBox supporting information file
[14] = Plasmodium falciparum, NF54, read-out: Antiplasmodial IC50 (GAM / LSG), PBox compounds, stage IV gametocytes, single determination
[15] = 3D7, read-out: Antiplasmodial IC50 (ABS), PBox compounds, P. falciparum 3D7

Row | SMILES | IC50 (HEK293 cells) [nM] | IC50 (T. brucei brucei; [7]) [nM] | IC50 [1, 8] [nM] | IC50 [2, 9] [nM] | IC50 (T. brucei rhodesiense) [nM] | IC50 [4] [nM] | HepG2 PBox CC20 (HepG2; [12]) [nM] | further results
1 | O=C(NCCc1ccn(-c2ccccc2)n1)C1CCCCC1 [MMV688795] | > 20000 | 150 | 740 | 270 | < 130 | > 64000 | – | IC50 [3, 10]: 930 nM
2 | CCC(=O)Nc1ccccc1C(=O)Nc1ccccn1 [MMV202553] | > 20000 | 2460 | > 64000 | 1010 | 1310 | > 64000 | – | IC50 [2, 11]: 1000 nM
3 | CC(C)(C)C(O)C(Oc1ccc(-c2ccccc2)cc1)n1cncn1 (stereo not shown) [MMV688942, Bitertanol] | > 20000 | 32900 | 55 | – | 28000 | > 64000 | – | Emax [3]: < 100%; IC50 [3, 10]: 80 nM
4 | COc1cc(C2=NCCN2)ccc1-c1cn(-c2cccc(C3=NCCN3)c2)nn1 [MMV688407] | – | > 32000 | 25000 | – | 3720 | > 32000 | 22900 | –
5 | CC1=Nc2ccc(Cl)cc2C(c2ccccc2)N1CCNC(=O)CN(C)C (stereo not shown) [MMV688410] | – | 3780 | 17100 | – | 3110 | 10100 | 16400 | –
6 | CC1CCCCN1C(=O)NCCc1coc(-c2ccc(F)cc2)n1 (stereo not shown) [MMV688797] | > 20000 | 130 | 480 | 130 | 110 | > 64000 | – | IC50 [3, 10]: 370 nM
7 | Cc1nn2c(=O)c3c([nH]c2c1-c1ccc(Cl)cc1)CCCC3 [MMV688776] | > 20000 | 500 | 720 | 1790 | 140 | 44000 | – | IC50 [1, 13]: < 1000 nM; activity against T. cruzi at 8 μM in the Discovery Biology assay ([3]; 8 μM): no activity
8 | CC1=Nc2ccc(Cl)cc2C(O)(c2ccc(C)cc2)N1CCN1CCCCC1 (stereo not shown) [MMV688279] | > 20000 | 980 | 4040 | 4520 | 430 | 4060 | 10000 | IC50 [5, 14]: 2400 nM; IC50 ([5]; read-out: Antiplasmodial IC50 (GAM / LSG), PBox compounds, stage IV gametocytes, single determination): 2350 nM; IC50 [6, 15]: 320 nM
9 | CNC(=O)C1Cc2ccccc2N1C(=O)Cc1ccc(F)cc1 (stereo not shown) [MMV188296] | > 20000 | 490 | > 64000 | 1470 | 380 | > 64000 | – | –
10 | COc1ccc(C2=NN(C3CCCCCC3)C(=O)[C@@H]3CC=CC[C@H]23)cc1OCCCCOc1ccc(-c2nn[nH]n2)cc1 [MMV690027] | > 20000 | 20 | – | – | – | – | – | IC50 ([2]; Trypanosoma brucei, read-out: T b.brucei Discovery Biology IC50): 500 nM
11 | CO[C@@H](C(=O)N1Cc2n[nH]c(NC(=O)c3ccc(N4CCN(C)CC4)cc3)c2C1)c1ccccc1 [MMV676600] | – | 1020 | 6480 | 1340 | 370 | 4060 | 4800 | inhibition at 20 µM (HEK293 cells): 45%
12 | CS(=O)(=O)c1ccccc1C(=O)N(Cc1ccccc1)c1ccccc1 [MMV688798] | > 20000 | 560 | 35400 | 500 | 400 | > 64000 | – | –
13 | c1cc(C2=NCCN2)cc(-c2cc(-c3ccc(C4=NCCN4)cc3)no2)c1 [MMV688361] | – | 5630 | > 32000 | – | 3000 | > 32000 | 4500 | –
14 | CN1CCCN(C(c2ccccc2)c2ccc(Cl)cc2)CC1 (stereo not shown) [MMV004168] | – | 4640 | 9440 | – | 1940 | 36300 | – | –
15 | Cc1ccc(S(=O)(=O)Nc2ccc(CN3CCN(C(=O)c4cccc(C#N)c4)CC3)cc2)cc1 [MMV689028] | > 20000 | – | – | – | 120 | 32000 | – | IC50 (T. brucei brucei; read-out: T. brucei brucei IC50, PBox): 140 nM; IC50 [1, 13]: 1200 nM; IC50 [2, 11]: 240 nM; activity against T. brucei rhodesiense (T. brucei rhodesiense): demonstrated activity; IC50 ([3]; PBox compounds, 48 h exposure, read-out: IC50 T. cruzi (Discovery Biology)): 670 nM
16 | COc1cc(C2=NCCN2)cc2cc(-c3ccc(C4=NCCN4)cc3)oc12 [MMV688362] | > 20000 | 14500 | 13300 | – | 780 | > 32000 | 14300 | IC50 ([5]; Plasmodium falciparum, NF54, read-out: Pf Stage IV GAMS Discovery Biology IC50, stage IV gametocytes): 6670 nM; IC50 [6, 15]: 590 nM
17 | CO/N=C(\C(=O)OC)c1ccccc1CO/N=C(\C)c1cccc(C(F)(F)F)c1 [MMV688754] | > 20000 | 33600 | 1940 | – | 26200 | > 64000 | – | IC50 [5, 14]: 140 nM; IC50 ([6]; 3D7, read-out: Antiplasmodial IC50 (ABS)): 190 nM

Row | SMILES | IC50 (HEK293 cells) [nM] | IC50 (T. brucei brucei; [7]) [nM] | IC50 [1, 8] [nM] | IC50 [2, 9] [nM] | IC50 (T. brucei rhodesiense) [nM] | IC50 [4] [nM] | HepG2 PBox CC20 (HepG2; [12]) [nM] | further results
18 | c1ccc(Oc2ccc(-c3cc(C4CCOCC4)[nH]n3)cc2)cc1 [MMV687762] | – | 7580 | 16400 | 1790 | 3770 | > 32000 | 10800 | –
19 | COc1ccc(C2=NN(C3CCCCCC3)C(=O)C2(C)C)cc1OCCCCOc1ccc(-c2nn[nH]n2)cc1 [MMV690028] | > 20000 | 790 | – | 2250 | – | – | – | –
20 | CCOC(=O)c1noc(N)c1-c1ccccc1 [MMV1236379] | – | 1220 | > 64000 | – | 460 | > 64000 | – | –
21 | Clc1ccc(CN2CCN(C3=NCCN3)CC2)cc1Cl [MMV689060] | – | 31600 | 6570 | – | 30100 | > 64000 | – | –
22 | CC(=O)Nc1ccc(-c2noc(CC3CCCN(Cc4cccc(F)c4C)C3)n2)cc1 (stereo not shown) [MMV689061] | – | 32300 | 2800 | – | 25100 | 1590 | – | –
23 | COc1cc(C2=NCCN2)ccc1-n1cc(-c2cccc(C3=NCCN3)c2)nn1 [MMV688474] | – | > 32000 | > 32000 | – | 3810 | > 32000 | >80000 | –
24 | N=C(N)c1ccc(-c2cc(-c3ccccc3)on2)cc1 [MMV688514] | > 20000 | 4060 | 4040 | 3530 | 1080 | 2540 | 2600 | –
25 | NCCN(C(=O)c1ccc(Cl)cc1Cl)c1ccc(OCc2ccc(Cl)cc2)cc1 [MMV688371] | > 20000 | < 130 | 620 | 240 | < 130 | 630 | – | activity against T. brucei rhodesiense (T. brucei rhodesiense): demonstrated activity; IC50 [3, 10]: 4350 nM
26 | Cc1cccnc1NC(=O)c1cccc(OCc2c(C)noc2C)c1 [MMV688793] | > 20000 | 2070 | > 64000 | 1160 | 650 | > 64000 | – | IC50 [2, 11]: 1200 nM
27 | Cc1nn2c(O)c3c(nc2c1-c1ccc(F)cc1)CCCC3 [MMV099637] | > 20000 | 1940 | 2210 | 4430 | 480 | 50400 | – | –
28 | COc1ccc(S(=O)(=O)Nc2ccc(CN3CCN(C(=O)c4cccc(C#N)c4)CC3)cc2)cc1 [MMV689029] | > 20000 | 500 | 2700 | 1080 | 400 | 52200 | – | activity against T. brucei rhodesiense (T. brucei rhodesiense): demonstrated activity; IC50 [3, 10]: 1390 nM
29 | c1ccc(Oc2ccc(-c3cc(N4CCNCC4)[nH]n3)cc2)cc1 [MMV687706] | > 20000 | 990 | 4480 | 5050 | 970 | 4060 | 6400 | –
30 | CC1COC(Cn2cncn2)(c2ccc(Oc3ccc(Cl)cc3)cc2Cl)O1 (stereo not shown) [MMV688943, difenoconazole] | > 20000 | 32500 | 15 | – | 26200 | 44700 | – | Emax [3]: < 100%; IC50 [3, 10]: 100 nM
31 | CO[C@@H]1CN(c2ccc(C#CC3(O)CN4CCC3CC4)c(Cc3ccccc3)n2)C[C@H]1O (stereo partly shown) [MMV688415] | > 20000 | 16100 | < 130 | – | 4000 | 17300 | – | HepG2 PBox CC20 (HepG2): 38400 nM; Emax [3]: < 100%; IC50 [3, 10]: 100 nM
32 | COc1ccc(C2=NCCN2)cc1-c1cn(-c2cccc(C3=NCCN3)c2)nn1 [MMV688547] | > 20000 | > 32000 | > 32000 | – | 1630 | > 32000 | >80000 | IC50 [6, 15]: 1020 nM
33 | CCN(CC)S(=O)(=O)c1ccc(C(=O)Nc2cc(C)nn2-c2nc(C)c(C)c(=O)[nH]2)cc1 [MMV595321] | – | 5300 | 1960 | 4340 | 1700 | 6870 | – | activity in the HEK293 cytotoxicity assay (HEK293 cells): comparable activity; inhibition at 20 µM (HEK293 cells): 74%
